Source: US8168860B2, “Compositions and methods for the modification of physiological responses in plants” (Rohm and Haas Company, priority 2007, dated 2012)

How the values were obtained:
Type in all cases: in vivo
[1] = tested on: tomato seedlings (WT, p1002 and p1003 lines); test: Tomato seedling growth in the dark on 20 μM ACC with or without inducer; details: for Hypocotyls (mm) / Root (mm): 20 μM inducer, 20 μM ACC, 14 day old seedlings, dark
Procedure: Seed from three homozygous independent p1002 and p1003 lines were germinated in the dark on 0.5× MS medium+1% sucrose containing 20 μM ACC, the precursor to ethylene. Germination on ACC inhibits tomato seedling growth. Seed from the same lines also was germinated in the presence of 20 μM ACC plus 20 μM inducer.

[2] = tested on: tomato seedlings p1002-18-3; test: Transient induction: tomato seedlings on 20 μM ACC, inducer removed after 2-14 days; details: for Hypocotyl (mm) / Root (mm) / Hypocotyl Percent (%) / Root Percent (%): p1002-18-3 tomato; for Hypocotyl (mm) / Root (mm): dark, 14 day old seedlings
Procedure: After 14 days growth in the dark, hypocotyls and roots were measured to assess ethylene insensitivity. Ethylene insensitive seedlings would be expected to have longer hypocotyls and roots. […] Thus, root and hypocotyl growth of the reversed seedlings should be intermediate between the sensitive and insensitive seedlings.

[3] = tested on: tomato seedlings (WT, p1002-18, p1003-16); test: Tomato seedling growth on 20 μM ACC and various levels of inducer; details: 20 μM ACC; for Hypocotyl (mm) / Root (mm): 10 day old seedlings
Procedure: Homozygous tomato seeds from one p1002 containing and one p1003 containing line were germinated on medium containing 20 μM ACC and various levels of inducer (i.e., 0.5-20 μM).

[4] = tested on: tomato seedlings (WT, p1002-18, p1003-16); test: Tomato seedling growth on 20 μM inducer and various levels of ACC; details: 20 μM inducer; for Hypocotyl (mm) / Root (mm): 14 day old seedlings
[5] = tomato line p1002-4 (first line so labelled, r8)
[6] = tomato line p1002-4 (second line so labelled, r13)
[7] = 10 μM inducer, 2 days with inducer, 12 days without, 20 μM ACC
[8] = 10 μM inducer, 2 days with inducer, 12 days without, relative to 14 days with inducer
[9] = 10 μM inducer, 4 days with inducer, 10 days without, 20 μM ACC
[10] = 10 μM inducer, 4 days with inducer, 10 days without, relative to 14 days with inducer
[11] = 10 μM inducer, 6 days with inducer, 8 days without, 20 μM ACC
[12] = 10 μM inducer, 6 days with inducer, 8 days without, relative to 14 days with inducer
[13] = 10 μM inducer, 8 days with inducer, 6 days without, 20 μM ACC
[14] = 10 μM inducer, 8 days with inducer, 6 days without, relative to 14 days with inducer
[15] = 10 μM inducer, 14 days with inducer, 0 days without (reference)
[16] = 10 μM inducer, 14 days with inducer, 0 days without, 20 μM ACC
[17] = p1002-18 tomato, Inducer 0.5 μM
[18] = p1002-18 tomato, Inducer 2.5 μM
[19] = p1003-16 tomato, Inducer 0.5 μM
[20] = p1003-16 tomato, Inducer 2.5 μM

## CCC(N(NC(=O)c1ccc2c(c1C)O[C@@H](CO)CO2)C(=O)c1cc(C)cc(C)c1)C(C)(C)C (stereo partly drawn) [inducer, 3,5 Dimethyl-benzoic acid N-(1-ethyl-2,2-dimethyl-propyl)-N′-(3S-hydroxymethyl-5-methyl-2,3-dihydro-benzo[1,4]dioxine-6-carbonyl)hydrazide]
[1]; WT tomato
  Hypocotyls (mm): 11.2 ± 3.18 mm
  Root (mm): 11.2 ± 3.18 mm
[1]; [5]
  Hypocotyls (mm): 32.7 ± 16.8 mm
  Root (mm): 42.2 ± 16.3 mm
[1]; [6]
  Hypocotyls (mm): 33.9 ± 6.02 mm
  Root (mm): 29.8 ± 21.4 mm
[1]; tomato line p1002-7
  Hypocotyls (mm): 36.2 ± 8.42 mm
  Root (mm): 44.5 ± 7.71 mm
[1]; tomato line p1002-9
  Hypocotyls (mm): 29.9 ± 7.85 mm
  Root (mm): 35.0 ± 16.0 mm
[1]; tomato line p1002-16
  Hypocotyls (mm): 39.6 ± 9.62 mm
  Root (mm): 19.5 ± 16.3 mm
[1]; tomato line p1002-18
  Hypocotyls (mm): 35.4 ± 8.82 mm
  Root (mm): 35.4 ± 8.82 mm
[1]; tomato p1002 and p1003 lines, growth on ACC in the presence of inducer
  ethylene insensitivity (elongated hypocotyls with no apical hook): resulted in a state of ethylene insensitivity
[2]; [7]
  Hypocotyl (mm): 16.9 ± 4.30 mm
  Root (mm): 26.2 ± 15.3 mm
[2]; [8]
  Hypocotyl Percent (%): 63.8%
  Root Percent (%): 69.9%
[2]; [9]
  Hypocotyl (mm): 19.5 ± 7.52 mm
  Root (mm): 28.7 ± 14.7 mm
[2]; [10]
  Hypocotyl Percent (%): 73.6%
  Root Percent (%): 76.5%
[2]; [11]
  Hypocotyl (mm): 26.8 ± 6.27 mm
  Root (mm): 29.8 ± 9.61 mm
[2]; [12]
  Hypocotyl Percent (%): 101%
  Root Percent (%): 79.5%
[2]; [13]
  Hypocotyl (mm): 26.0 ± 10.3 mm
  Root (mm): 38.3 ± 9.15 mm
[2]; [14]
  Hypocotyl Percent (%): 98.1%
  Root Percent (%): 102%
[2]; [15]
  Hypocotyl Percent (%): 100%
  Root Percent (%): 100%
[2]; [16]
  Hypocotyl (mm): 26.5 ± 7.51 mm
  Root (mm): 37.5 ± 13.2 mm
[2]; tomato p1002 line, 10 μM inducer, 20 μM ACC
  duration of induction sufficient for a full state of ethylene insensitivity: Six days was sufficient to induce a full state of ethylene insensitivity
[2]; tomato p1002 line, induced for 2 or 4 days then removed from inducer, compared to non-induced control
  reversal after removal of inducer: showed return to a state of ethylene sensitivity
[3]; WT tomato, Inducer 20 μM
  Hypocotyl (mm): 6.24 ± 2.75 mm
  Root (mm): 9.06 ± 14.8 mm
[3]; [17]
  Hypocotyl (mm): 8.40 ± 6.29 mm
  Root (mm): 12.0 ± 13.3 mm
[3]; p1002-18 tomato, Inducer 1 μM
  Hypocotyl (mm): 11.1 ± 7.41 mm
  Root (mm): 16.5 ± 16.6 mm
[3]; [18]
  Hypocotyl (mm): 13.5 ± 8.97 mm
  Root (mm): 16.0 ± 16.6 mm
[3]; p1002-18 tomato, Inducer 5 μM
  Hypocotyl (mm): 14.5 ± 7.75 mm
  Root (mm): 15.2 ± 8.39 mm
[3]; p1002-18 tomato, Inducer 10 μM
  Hypocotyl (mm): 19.8 ± 10.8 mm
  Root (mm): 22.7 ± 13.5 mm
[3]; p1002-18 tomato, Inducer 20 μM
  Hypocotyl (mm): 26.3 ± 11.9 mm
  Root (mm): 33.3 ± 12.8 mm
[3]; [19]
  Hypocotyl (mm): 17.0 ± 6.46 mm
  Root (mm): 14.4 ± 15.3 mm
[3]; p1003-16 tomato, Inducer 1 μM
  Hypocotyl (mm): 20.9 ± 10.7 mm
  Root (mm): 10.3 ± 12.7 mm
[3]; [20]
  Hypocotyl (mm): 20.1 ± 8.77 mm
  Root (mm): 9.19 ± 8.98 mm
[3]; p1003-16 tomato, Inducer 5 μM
  Hypocotyl (mm): 23.6 ± 11.4 mm
  Root (mm): 20.2 ± 14.9 mm
[3]; p1003-16 tomato, Inducer 10 μM
  Hypocotyl (mm): 25.9 ± 8.77 mm
  Root (mm): 29.1 ± 12.4 mm
[3]; p1003-16 tomato, Inducer 20 μM
  Hypocotyl (mm): 27.5 ± 9.10 mm
  Root (mm): 25.6 ± 11.4 mm
[3]; tomato p1002 and p1003 line, inducer 0.5-20 μM
  relation of inducer concentration to level of ethylene insensitivity: directly related to the level of ethylene insensitivity
[4]; WT tomato, 5 μM Ag
  Hypocotyl (mm): 41.4 ± 8.20 mm
  Root (mm): 22.3 ± 5.66 mm
[4]; WT tomato, ACC 0 μM
  Hypocotyl (mm): 36.4 ± 9.44 mm
  Root (mm): 28.8 ± 6.26 mm
[4]; WT tomato, ACC 1 μM
  Hypocotyl (mm): 25.9 ± 12.7 mm
  Root (mm): 14.4 ± 9.42 mm
[4]; WT tomato, ACC 2.5 μM
  Hypocotyl (mm): 11.3 ± 6.25 mm
  Root (mm): 12.3 ± 9.41 mm
[4]; WT tomato, ACC 5 μM
  Hypocotyl (mm): 8.50 ± 4.35 mm
  Root (mm): 10.4 ± 8.73 mm
[4]; WT tomato, ACC 10 μM
  Hypocotyl (mm): 7.71 ± 1.20 mm
  Root (mm): 13.1 ± 10.8 mm
[4]; WT tomato, ACC 20 μM
  Hypocotyl (mm): 3.21 ± 1.19 mm
  Root (mm): 11.2 ± 9.40 mm
[4]; p1002-18 tomato, 5 μM Ag
  Hypocotyl (mm): 38.2 ± 6.85 mm
  Root (mm): 31.6 ± 5.68 mm
[4]; p1002-18 tomato, ACC 0 μM
  Hypocotyl (mm): 40.7 ± 9.50 mm
  Root (mm): 30.9 ± 7.14 mm
[4]; p1002-18 tomato, ACC 1 μM
  Hypocotyl (mm): 28.4 ± 18.0 mm
  Root (mm): 24.7 ± 7.53 mm
[4]; p1002-18 tomato, ACC 2.5 μM
  Hypocotyl (mm): 29.4 ± 15.0 mm
  Root (mm): 25.8 ± 8.50 mm
[4]; p1002-18 tomato, ACC 5 μM
  Hypocotyl (mm): 27.3 ± 9.03 mm
  Root (mm): 24.0 ± 7.77 mm
[4]; p1002-18 tomato, ACC 10 μM
  Hypocotyl (mm): 28.0 ± 14.1 mm
  Root (mm): 24.8 ± 6.03 mm
[4]; p1002-18 tomato, ACC 20 μM
  Hypocotyl (mm): 26.5 ± 15.1 mm
  Root (mm): 24.1 ± 3.98 mm
[4]; p1003-16 tomato, 5 μM Ag
  Hypocotyl (mm): 36.3 ± 9.08 mm
  Root (mm): 23.8 ± 4.92 mm
[4]; p1003-16 tomato, ACC 0 μM
  Hypocotyl (mm): 39.8 ± 17.1 mm
  Root (mm): 18.7 ± 3.94 mm
[4]; p1003-16 tomato, ACC 1 μM
  Hypocotyl (mm): 39.3 ± 11.0 mm
  Root (mm): 18.2 ± 716 mm
[4]; p1003-16 tomato, ACC 2.5 μM
  Hypocotyl (mm): 38.9 ± 18.2 mm
  Root (mm): 12.9 ± 8.61 mm
[4]; p1003-16 tomato, ACC 5 μM
  Hypocotyl (mm): 33.0 ± 15.2 mm
  Root (mm): 12.9 ± 9.36 mm
[4]; p1003-16 tomato, ACC 10 μM
  Hypocotyl (mm): 29.7 ± 18.8 mm
  Root (mm): 12.7 ± 12.1 mm
[4]; p1003-16 tomato, ACC 20 μM
  Hypocotyl (mm): 24.3 ± 15.2 mm
  Root (mm): 13.0 ± 7.92 mm
[4]; tomato p1002 and p1003 line, ACC 1.0-20 μM
  induction of ethylene insensitivity over ACC concentrations: induction of ethylene insensitivity occurred across the range of ACC concentrations tested
